Here are results for ten compounds from PMC11519910, “Semisynthetic Ecdysteroid Cinnamate Esters and tert-Butyl Oxime Ether Derivatives with Trypanocidal Activity” (Journal of Natural Products, 2024).

Read-outs that look alike come from different tables or passages of the source.

One data set has as its system T. cruzi epimastigotes. Put plainly: Trypanocidal activity against epimastigotes (XTT). In kind it is cell-based, Trypanosoma cruzi. The note with it: for inhibition at 5 µM: read-out: inhibition of epimastigote proliferation; for IC50: 72 h incubation, read-out: IC50, epimastigote proliferation. On the procedure: Trypanocidal activity against epimastigotes was assessed by XTT (2,3-bis(2-methoxy-4-nitro-5-sulfophenyl)-2H-tetrazolium-5-carboxanilide). Briefly, 1.5 × 10^6 epimastigotes were seeded per well in 96-well plates. The ecdysteroid was added at 8 concentrations ranging from 25 to 0.2 μM for 72 h at 28 °C. […] Following the incubation period, the plates were examined under the microscope for sterility and growth of controls. To the plates, 50 μL of XTT and PMS (phenazine methosulfate, Sigma-Aldrich, MO, USA) solution (XTT and PMS at 0.5 and 0.025 mg/mL, respectively) was added, and the plates were then incubated at 28 °C for 3 h. The parasites were fixed by the addition of 50 μL of MeOH for 15 min before the absorbance was measured at 490 nm on a Tecan plate reader. Results were expressed as percentage cell viability relative to the vehicle control or IC50 values calculated by GraphPad Prism version 8.0. All assessments were performed in triplicates in three independent experiments.

A further data set concerns T. cruzi. Set-up: method as in PMID 30517542. The note with it: free acid forms; read-out: IC50, antitrypanosomal activity; cited from earlier work.
A further data set concerns RAW264.7 cells. Put plainly: cells. Type of data set: cell-based. On the procedure:
Cytotoxicity or antiproliferative effects of ecdysteroid against mammalian cells was assessed using MTT (3-(4,5-dimethylthiazol-2-yl)-2,5-diphenyltetrazolium bromide). CHO or RAW264.7 cells were used for screening the compounds. Briefly, the cells were seeded at a density of 2000/well in 96-well plates. After 24 h of incubation at 37 °C and 5% CO2, ecdysteroid ([…]) was added to the cells at various concentrations. In all the experiments, podophyllotoxin was used as the positive control. In all experiments, vehicle controls were included, and the final DMSO concentration was below 0.5%. After 72 h, the plates were examined under an inverted microscope for sterility and growth of controls after the incubation period. The spent medium was removed, and 100 μL of fresh medium containing 0.5 mg/mL of the final concentration of MTT was added to the cells. The plates were incubated for 4 h at 37 °C in 5% CO2. The formazan crystals were solubilized by adding 200 μL of DMSO and mixed thoroughly. The absorbance was determined at 550 nm by using a Tecan plate reader. The values were corrected to the blank medium and vehicle control (DMSO only). Results were expressed as percentage cell viability relative to the vehicle control. Each assay was performed in technical triplicate in three independent experiments.

The test system of data set [1] is T. cruzi (GFPY parasite release in trypomastigote-infected RAW264.7 cells). The data set is described as follows: FACS-based quantitation of released parasites from infected RAW264.7 cells. In kind it is cell-based, Trypanosoma cruzi. On the procedure:
The host RAW264.7 cells were seeded in 24-well plates at a density of 20,000 cells/mL. The cells were allowed to adhere for 24 h and infected with trypomastigotes at a multiplicity of 10. On the next day, noninternalized trypomastigotes were washed away, and fresh RPMI with 2% hiFBS was added to the wells along with the C44 at various concentrations. […] Three independent experiments in triplicates were performed to determine the activity of the ecdysteroid.

Data set [2] relates to T. cruzi amastigotes in CCL39 fibroblasts. The data set is described as follows: Fluorescence microscopy of amastigote replication in infected CCL39 fibroblasts. In kind it is cell-based, Trypanosoma cruzi. The conditions noted are these: 5 μM, of infection. As for the experimental part: The host CCL39 cells were seeded in 24-well plates at a density of 20,000 cells/mL. The cells were allowed to adhere for 24 h and infected with trypomastigotes at a multiplicity of 10. On the next day, non-internalized trypomastigotes were washed away, and fresh RPMI with 2% hiFBS was added to the wells along with the test substance. […] The images were analyzed on ImageJ.

With `CC(C)(O)CC[C@H]1OC(C)(C)O[C@]1(C)[C@H]1CC[C@@]2(O)C3=C/C(=N\OC(C)(C)C)[C@@H]4C[C@H]5OC(C)(C)O[C@H]5C[C@]4(C)[C@H]3CC[C@]12C` [Compound 24], the inhibition at 5 µM in the data set with T. cruzi epimastigotes (Trypanosoma cruzi, 72 h) is at least 30%. Turning to `CC(C)(O)CC[C@@H](OC(=O)/C=C/c1ccccc1)[C@](C)(O)[C@H]1CC[C@@]2(O)C3=CC(=O)[C@@H]4C[C@@H](O)[C@@H](OC(=O)/C=C/c5ccccc5)C[C@]4(C)[C@H]3CC[C@]12C` [Compound 40], the inhibition at 5 µM in the data set with T. cruzi epimastigotes (Trypanosoma cruzi, 72 h) was at least 30%. Take `COc1cc(C=CC(=O)O)cc(OC)c1OC` [3,4,5-trimethoxycinnamic acid]: the IC50 in the data set with T. cruzi was over 600 µM.

Turning to `CC(C)(O)CC[C@@H](OC(=O)/C=C/c1ccccc1)[C@](C)(O)[C@H]1CC[C@@]2(O)C3=CC(=O)[C@@H]4C[C@@H](OC(=O)/C=C/c5ccccc5)[C@@H](O)C[C@]4(C)[C@H]3CC[C@]12C` [Compound 39], the inhibition at 5 µM in the data set on T. cruzi epimastigotes (Trypanosoma cruzi, 72 h) is at least 30%. With `CC(C)(O)CC[C@@H](O)[C@](C)(O)[C@H]1CC=C2C3=C/C(=N\OC(C)(C)C)[C@@H]4C[C@@H](O)[C@@H](OC(=O)/C=C/c5ccccc5)C[C@]4(C)[C@H]3CC[C@@]21C` [Compound 44], the IC50 with T. cruzi epimastigotes was 1.7 ± 0.2 µM; in the data set on T. cruzi epimastigotes (Trypanosoma cruzi, 72 h), under 2 µM; in the data set with RAW264.7 cells (Mus musculus, RAW264.7, MTT, 72 h of incubation, read-out: IC50, cell proliferation in RAW264.7 cells), 11.6 ± 1.6 µM; in data set [1] (Trypanosoma cruzi, 144 h, trypomastigote-infected RAW264.7 cells, FACS after 6 days) it was 2.7 ± 0.1 µM. The “cytotoxicity on the host cells” value in the data set on RAW264.7 cells is “moderate cytotoxicity”. In the data set with RAW264.7 cells (apparent selectivity, cytotoxicity toward T. cruzi vs host cells), the “selectivity, T. cruzi over RAW264.7 host macrophages” value is “more than 5 fold”. The “inhibition of trypomastigote release” value in data set [1] (infected RAW264.7 cells) is on record as “more than 95%”. The “inhibition of amastigote replication” value in data set [2] is “efficiently inhibits amastigote replication”.

As to `CC(C)(O)CC[C@H]1OC(C)(C)O[C@]1(C)[C@H]1CC=C2C3=C/C(=N/OC(C)(C)C)[C@@H]4C[C@H]5OC(C)(C)O[C@H]5C[C@]4(C)[C@H]3CC[C@@]21C` [Compound 28], the inhibition at 5 µM with T. cruzi epimastigotes (Trypanosoma cruzi, 72 h) is at least 30%. Turning to `CC(C)(O)CC[C@@H](O)[C@](C)(O)[C@H]1CC=C2C3=C/C(=N\OC(C)(C)C)[C@@H]4C[C@@H](O)[C@@H](O)C[C@]4(C)[C@H]3CC[C@@]21C` [Compound 42], in the data set with T. cruzi epimastigotes (Trypanosoma cruzi, 72 h), the inhibition at 5 µM is under 30%. Consider `COc1ccc(/C=C/C(=O)O)c(OC)c1` [trans-2,4-dimethoxycinnamic acid], for which, in the data set on T. cruzi, the IC50 is over 600 µM.

Take `COc1ccc(C=CC(=O)O)cc1` [4-methoxycinnamic acid (p-coumaric acid), 4-methoxycinnamic acid]: in the data set with T. cruzi, the IC50 was over 600 µM. Regarding `CC(C)(O)CC[C@@H](O)[C@](C)(O)[C@H]1CC=C2C3=C/C(=N/OC(C)(C)C)[C@@H]4C[C@@H](O)[C@@H](O)C[C@]4(C)[C@H]3CC[C@@]21C` [Compound 43], the inhibition at 5 µM in the data set on T. cruzi epimastigotes (Trypanosoma cruzi, 72 h) was under 30%.
